# Laboratory results from ChEMBL document CHEMBL1135966, “New synthetic analogues of N-acyl homoserine lactones as agonists or antagonists of transcriptional regulators involved in bacterial quorum sensing” (Bioorg Med Chem Lett, 2002).
# Tested on: Aliivibrio fischeri
# Test: Concentration required for 50% inhibition of 3-oxo-C6-HSL-induced luminescence of the biosensor strain
row,SMILES,IC50 [nM]
1,O=C(CCCC1CCCCC1)NC1CCOC1=O (centres undefined),> 6000
2,O=C(COCc1ccccc1)NC1CCOC1=O (centres undefined),3000
3,CCCC(=O)CC(=O)NC1CCOC1=O (centres undefined),200
4,O=C(CC(=O)NC1CCOC1=O)Cc1ccc(C(F)(F)F)cc1 (centres undefined),10000
5,O=C(CC(=O)NC1CCOC1=O)Cc1ccccc1Cl (centres undefined),6000
6,O=C(CC(=O)NC1CCOC1=O)Cc1ccc(Br)cc1 (centres undefined),2000
7,COc1ccc(CC(=O)CC(=O)NC2CCOC2=O)cc1 (centres undefined),3000
8,Cc1ccc(CC(=O)CC(=O)NC2CCOC2=O)cc1 (centres undefined),4000
9,O=C(CC(=O)NC1CCOC1=O)CC1CCCCC1 (centres undefined),1100
10,CC(C)CC(=O)CC(=O)NC1CCOC1=O (centres undefined),500
11,O=C(CCCc1ccccc1)NC1CCOC1=O (centres undefined),2000
12,CC(C)(C)CC(=O)CC(=O)NC1CCOC1=O (centres undefined),15000
13,O=C(CC(=O)NC1CCOC1=O)Cc1ccc(Cl)cc1 (centres undefined),3000
14,O=C(CC(=O)NC1CCOC1=O)Cc1ccccc1 (centres undefined),2000
15,O=C(CSCc1ccccc1)NC1CCOC1=O (centres undefined),2000
16,CCCCCC(=O)NC1CCOC1=O (centres undefined),> 9000
17,O=C(CC(=O)NC1CCOC1=O)CC1CCCC1 (centres undefined),250
18,O=C(CC(=O)NC1CCOC1=O)Cc1cccc(Cl)c1 (centres undefined),4000
19,O=C(CC(=O)NC1CCOC1=O)Cc1ccc(F)cc1 (centres undefined),4000
